Laboratory results reported in article PMC5760651, “Peptidomimetic blockade of MYB in acute myeloid leukemia” (Nature Communications, 2018).
Non-standard residues stand in square brackets, D forms with d. Residues, ends and D or L forms follow the SMILES beside them.

Key:
MV411 and MOLM-13 cells = assay: Western blot of BCL2 protein; type: cell-based, human; conditions: 20 μM, 6 hours and 24 hours
Experimental: Cells were lysed in RIPA buffer (Thermo Fisher) supplemented with a protease inhibitor mix comprised of AEBSF (0.5 mM concentration, Santa Cruz, SC-202041B), Bestatin (0.01 mM, Fisher/Alfa Aesar, J61106-MD), Leupeptin (0.1 mM, Santa Cruz, SC-295358B), and Pepstatin (0.001 mM, Santa Cruz, SC-45036A). Lysates were mechanically disrupted using Covaris S220 adaptive focused sonicator, according to the manufacturer’s instructions (Covaris, Woburn, CA). Lysates were cleared by centrifugation for 15 min at 18,000 × g and clarified lysates were quantified using the bicinchoninic acid assay (Pierce). Clarified lysates (20 μg of protein) were resolved using sodium dodecyl sulfate-polyacrylamide gel electrophoresis, and electroeluted using the Immobilon FL PVDF membranes (Millipore, Billerica, MA, USA). Membranes were blocked using the Odyssey Blocking buffer (Li-Cor, Lincoln, Nebraska, USA). […] Blotted membranes were visualized using secondary antibodies conjugated to IRDye 800CW or IRDye 680RD (Goat anti-rabbit, 1:15,000, and goat anti-mouse, 1:15,000) and the Odyssey CLx fluorescence scanner, according to manufacturer’s instructions (Li-Cor, Lincoln, Nebraska, USA).
Supplementary Figure 9. BCL2 expression as measured by Western blot in MV411 and […]
ImageJ. BCL2 protein expression is quantified as a fraction of its respective PBS control […]

[1] = system: primary patient-derived MLL-rearranged leukemia cells in NSG mice; assay: Patient-derived MLL-rearranged leukemia xenograft, treatment 3 days post transplantation, survival; type: in vivo, mouse
Experimental: All mouse experiments were carried out in accordance with the Memorial Sloan Kettering Institutional Animal Care and Use Committee. For toxicity studies, female C57BL/6J mice (The Jackson Laboratory, Bar Harbor, Maine, USA) were treated with MYBMIM peptide suspended in PBS and administered daily through intraperitoneal injection at a dose of 25 mg/kg for a total of 7 days. Mice were sacrificed at the end of treatment for hematologic, biochemical and histologic analyses. For pharmacokinetic studies, C57BL/6J mice (The Jackson Laboratory, Bar Harbor, Maine, USA) were treated with a single IP injection of 25 mg/kg BIO-MYBMIM, and blood plasma was collected 30 min, 2 h, 4 h, and 24 h post-injection. Quantification of BIO-MYBMIM was measured using the Quant-Tag Biotin kit (Vector Labs, cat. # BDK-2000) following the manufacturer instructions. For patient-derived xenografts, two hundred thousand primary AML MLL-rearranged leukemia cells were suspended in […] of PBS and transplanted via tail vein injection into 8-week-old sublethally irradiated (200 rad) female NOD.Cg-Prkdc(scid)Il2rg(tm1Wjl)/SzJ mice (The Jackson Laboratory, Bar Harbor, Maine, USA). […] Mice were treated from days 3–17 of this study for a total of 14 days and then monitored daily with clinical examination for survival analysis.

CC[C@@H](C)[C@@H](NC(=O)[C@@H](CCCCN)NC(=O)[C@@H](CCC(=O)O)NC(=O)[C@@H](CC(C)C)NC(=O)[C@@H](CCC(=O)O)NC(=O)[C@@H](CC(C)C)NC(=O)[C@@H](CC(C)C)NC(=O)[C@@H](CC(C)C)NC(=O)[C@@H](CCSC)NC(=O)[C@@H](CO)NC(=O)[C@H](NC(=O)[C@@H](CCC(=O)O)NC(=O)[C@@H](CC(N)=O)NC(=O)[C@@H](CCC(=O)O)NC(=O)[C@@H](CC(C)C)NC(=O)[C@@H](CCCCN)NC(C)=O)[C@H](C)O)C(=O)N[C@H](CCCNC(=N)N)C(=O)N[C@H](CCCCN)C(=O)NCC(=O)NCC(=O)N[C@H](CCCNC(=N)N)C(=O)N[C@H](CCCNC(=N)N)C(=O)N[C@H](CCCNC(=N)N)C(=O)N[C@H](CCC(N)=O)C(=O)N[C@H](CCCNC(=N)N)C(=O)N[C@H](CCCNC(=N)N)C(=O)N[C@H](CCCCN)C(=O)N[C@H](CCCCN)C(=O)N[C@H](CCCNC(=N)N)C(=O)NCC(=O)N[C@H](Cc1ccc(O)cc1)C(N)=O [MYBMIM] (Ac-[dK][dL][dE][dN][dE][dT][dS][dM][dL][dL][dL][dE][dL][dE][dK][dI][dR][dK]GG[dR][dR][dR][dQ][dR][dR][dK][dK][dR]G[dY]-NH2)
BCL2 protein abundance (MV411 and MOLM-13 cells): significant albeit modest decrease
Leukemia progression and survival ([1]; NSG mice, 25 mg/kg IP twice daily, 14 days from 3 days post-transplantation, n = 15 per group, p = 3.8e-3 log-rank): significantly delayed leukemia progression and extended survival
Disease latency in secondary transplant recipients ([1]; leukemia cells from moribund MYBMIM-treated mice vs vehicle, n = 10 per group, p < 0.0001 log-rank): significantly delayed disease latency
